pIC50: −log10 of the molar value.
Assays:
Assay type in all cases: biochemical
ALK = ALK (Homo sapiens, UniProt Q9UM73); assay: ALK kinase assay (Kinase-Glo / AlphaScreen, purified NPM-ALK); parameters: fused to the complete intracytoplasmic portion of ALK containing the functional tyrosine kinase domain; 6xHis; made in house; host or cells: insect cells; the other entry of the earlier key: NPM1 (P06748, Nucleophosmin); conditions: Table 1; read-out: ALK IC50
IRK = target: T1, IRK (Homo sapiens, UniProt P06213); assay: IRK (insulin receptor kinase) assay; conditions: Table 1; read-out: IRK IC50
T1 construct: 6×His- or GST-tagged kinase domain fragments of the corresponding RTKs expressed in baculovirus system; host or cells: baculovirus system
Description: (§1) To determine inhibition of several tyrosine kinases, such as IGF1R, InsR, Alk, TrkA and Jak2, kinase assays are conducted using either Kinase-Glo (Promega) or AlphaScreen (PerkinElmer) kinase assay platforms. The Kinase-Glo Luminescent Kinase Assay is a homogeneous method for measuring kinase activity by determining the amount of ATP remaining after a kinase reaction. The luminescent signal is proportional to the amount of ATP and inversely proportional to the amount of kinase activity. Tyrosine kinase PT66 AlphaScreen Assay is a high-sensitivity homogeneous, anti-phosphotyrosine antibody-mediated luminescent proximity method measuring incorporation of phosphate in synthetic poly(Glu-Tyr) substrate. The kinase preparations used consist of purified recombinant, 6×His- or GST-tagged kinase domain fragments of the corresponding RTKs expressed in baculovirus system.
(§2) Compounds with a range of concentrations 40 μM, 20 μM, 10 μM, 5 μM, 2.5 μM, 1.25 μM, 0.625 μM, 0.3125 μM, 0.15625 μM and 0.078125 μM were incubated with NPM-ALK, which was produced in insect cells as a 6×HIS-tagged fusion protein and purified using nickel-charged resin chromatography, for 30 minutes at RT in the presence of 10 μM ATP and 7.0 ng biotinylated poly-GT. A 1:1 mixture of […] and donor beads was then added to the reaction and incubated for an additional 60 minutes at RT. The assay was conducted on a MultiPROBE liquid handling workstation (PerkinElmer) in a 384-well plate format with a total reaction volume of 40 μL per well. Working stocks of all compounds were dissolved in 100% DMSO and serial dilutions of the compounds were performed using kinase buffer (50 mM Tris-HCl (pH 7.5), 5 mM MgCl2, 5 mM MnCl2, 2 mM DTT (added freshly before use), 0.01% Tween-20) containing 5% DMSO. […] Data were collected as optical readings at 520-680 nm on a Fusion™ microplate analyzer (PerkinElmer), and IC50 and Ki values calculated using PRISM3.0 software (GraphPad Software, Inc., San Diego, Calif.). The same assay was also used with minor modifications to assess the IC50 and Ki values for selected compounds against five other tyrosine kinases (IRK, IGF1R, Flt3, Abl, Src), all of which were purchased from commercial vendors. PolyGT-Biotin was bought from CIS Biointernational Cat. #61GT0BLD; ATP—from Sigma Cat. # A7699; sodium orthovanadate—from Sigma Cat. #S-6508; phosphotyrosine (PT66) assay kit from PerkinElmer Cat. #6760602M; automated workstation tips (20 μL): PerkinElmer Cat. #6000657; and OptiPlate-384 (white)—from PerkinElmer Cat. #6007299.

IGF1R = target: T2, IGF1R (Homo sapiens, UniProt P08069); assay: IGF1R kinase assay; conditions: Table 1; read-out: IGF1R IC50
T2 construct: 6×His- or GST-tagged kinase domain fragments of the corresponding RTKs expressed in baculovirus system; host or cells: baculovirus system
Description: as §1, §2

T2 sequence (P08069 999-1274 limits assumed): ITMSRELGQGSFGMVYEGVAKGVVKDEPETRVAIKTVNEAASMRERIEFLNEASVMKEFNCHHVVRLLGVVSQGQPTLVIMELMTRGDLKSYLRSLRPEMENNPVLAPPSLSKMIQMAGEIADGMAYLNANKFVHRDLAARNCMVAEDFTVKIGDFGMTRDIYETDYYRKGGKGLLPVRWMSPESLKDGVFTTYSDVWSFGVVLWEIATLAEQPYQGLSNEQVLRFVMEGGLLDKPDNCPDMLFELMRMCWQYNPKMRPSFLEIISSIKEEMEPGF
T1 sequence (P06213 1023-1298 limits assumed): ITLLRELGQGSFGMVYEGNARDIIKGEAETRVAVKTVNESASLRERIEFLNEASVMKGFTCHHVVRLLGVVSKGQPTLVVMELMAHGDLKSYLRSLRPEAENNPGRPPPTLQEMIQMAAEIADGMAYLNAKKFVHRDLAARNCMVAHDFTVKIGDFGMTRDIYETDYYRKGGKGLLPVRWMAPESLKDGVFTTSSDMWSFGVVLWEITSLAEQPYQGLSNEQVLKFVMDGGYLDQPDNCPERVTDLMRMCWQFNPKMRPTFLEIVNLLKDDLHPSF
ALK, sequence (Q9UM73 with tags, fused parts or gaps): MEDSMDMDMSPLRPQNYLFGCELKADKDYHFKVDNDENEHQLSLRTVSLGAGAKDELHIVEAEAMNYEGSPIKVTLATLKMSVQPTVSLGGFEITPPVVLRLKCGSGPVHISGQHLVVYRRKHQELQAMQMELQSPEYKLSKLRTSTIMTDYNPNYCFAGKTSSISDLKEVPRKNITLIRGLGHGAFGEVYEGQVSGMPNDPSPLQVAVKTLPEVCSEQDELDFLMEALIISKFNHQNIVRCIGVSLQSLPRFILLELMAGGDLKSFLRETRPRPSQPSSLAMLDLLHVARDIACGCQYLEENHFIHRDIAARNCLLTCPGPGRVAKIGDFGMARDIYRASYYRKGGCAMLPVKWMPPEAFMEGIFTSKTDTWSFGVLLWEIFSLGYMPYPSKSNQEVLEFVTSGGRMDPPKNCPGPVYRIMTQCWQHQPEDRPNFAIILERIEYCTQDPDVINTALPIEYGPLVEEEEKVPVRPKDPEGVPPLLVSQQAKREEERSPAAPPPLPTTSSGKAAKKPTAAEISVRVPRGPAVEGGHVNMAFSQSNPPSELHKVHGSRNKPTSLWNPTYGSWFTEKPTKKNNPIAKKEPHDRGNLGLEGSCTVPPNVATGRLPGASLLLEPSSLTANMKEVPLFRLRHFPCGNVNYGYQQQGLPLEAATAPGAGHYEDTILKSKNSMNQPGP

| Structure (SMILES) | pIC50 (ALK) | pIC50 (IRK) | pIC50 (IGF1R) |
| --- | --- | --- | --- |
| Cc1ccsc1C[C@H](C)Nc1cc[nH]c(=O)c1-c1nc2cc3c(cc2[nH]1)CN(CCN1CCCC1)C3=O | 7.00 to 8.00 | 7.00 to 8.00 | 6.00 to 6.60 |
| Cc1ccc(Cl)cc1C[C@H](C)Nc1cc[nH]c(=O)c1-c1nc2cc3c(cc2[nH]1)CN(CCN1CCCC1)C3=O | 6.00 to 6.60 | 6.60 to 7.00 | < 6.00 |
| C[C@@H](Cc1cccs1)Nc1cc[nH]c(=O)c1-c1nc2cc3c(cc2[nH]1)C(=O)N(C1CCN(CCS(C)(=O)=O)CC1)C3 | 6.60 to 7.00 | 6.00 to 6.60 | 6.60 to 7.00 |
| Cc1ccc(F)cc1C[C@H](C)Nc1cc[nH]c(=O)c1-c1nc2cc3c(cc2[nH]1)CN(CCN1CCOCC1)C3=O | 6.60 to 7.00 | < 6.00 | 6.60 to 7.00 |
| Cc1cc(F)ccc1C[C@H](C)Nc1cc[nH]c(=O)c1-c1nc2cc3c(cc2[nH]1)C(=O)N(CCN1CCCC1)C3 | 7.00 to 8.00 | 6.00 to 6.60 | < 6.00 |
| C[C@@H](Cc1cc(F)cc(F)c1F)Nc1cc[nH]c(=O)c1-c1nc2cc3c(cc2[nH]1)CN(CCN(C)C)C3=O [drawing 325] | > 8.00 | 6.00 to 6.60 | 6.60 to 7.00 |
| C[C@@H](Cc1cccs1)Nc1cc[nH]c(=O)c1-c1nc2cc3c(cc2[nH]1)C(=O)N(CCCN(C)C)C3 | 6.60 to 7.00 | 6.60 to 7.00 | 6.00 to 6.60 |
| Cc1c(F)cc(F)cc1C[C@H](C)Nc1cc[nH]c(=O)c1-c1nc2cc3c(cc2[nH]1)CN(CCN1CCCC1)C3=O | < 6.00 |  | 6.00 to 6.60 |
| COc1ccc(F)cc1C[C@H](C)Nc1cc[nH]c(=O)c1-c1nc2cc3c(cc2[nH]1)CN(CCN1CCCC1)C3=O | 7.00 to 8.00 | 6.00 to 6.60 | 6.60 to 7.00 |
| CC(Cc1cccs1)N(C)c1cc[nH]c(=O)c1-c1nc2cc3c(cc2[nH]1)C(=O)N(CCCN1CCCC1)C3 (centres unmarked) | < 6.00 | < 6.00 | < 6.00 |
| COc1ccc(F)cc1C[C@H](C)Nc1cc[nH]c(=O)c1-c1nc2cc3c(cc2[nH]1)CN(CCN1CCOCC1)C3=O | 6.60 to 7.00 | < 6.00 | 6.60 to 7.00 |
| CC(Cc1cccs1)Nc1cc[nH]c(=O)c1-c1nc2cc3c(cc2[nH]1)C(=O)N(CCCN1CCCC1)C3=O (centres unmarked) | 6.60 to 7.00 | < 6.00 | < 6.00 |
| C[C@H](Nc1cc[nH]c(=O)c1-c1nc2cc3c(cc2[nH]1)C(=O)N(CCCN1CCCC1)C3=O)[C@H](O)c1ccccc1 | 6.60 to 7.00 |  | 6.00 to 6.60 |
| Cc1noc(C)c1CC(C)Nc1cc[nH]c(=O)c1-c1nc2cc3c(cc2[nH]1)C(=O)N(CCCN1CCCC1)C3 (centres unmarked) | < 6.00 |  | < 6.00 |
| C[C@@H](Cc1sccc1Cl)Nc1cc[nH]c(=O)c1-c1nc2cc3c(cc2[nH]1)C(=O)N(C[C@H](C)N(C)C)C3 | > 8.00 |  | 6.00 to 6.60 |
| Cc1ccsc1C[C@H](C)Nc1cc[nH]c(=O)c1-c1nc2cc3c(cc2[nH]1)CN(CCN1CCS(=O)(=O)CC1)C3=O | 6.60 to 7.00 |  | 6.00 to 6.60 |
| C[C@@H](Cc1sccc1Cl)Nc1cc[nH]c(=O)c1-c1nc2cc3c(cc2[nH]1)C(=O)N([C@@H](C)CN(C)C)C3 | 7.00 to 8.00 |  | 6.60 to 7.00 |
| Cc1ccc(CC(C)Nc2cc[nH]c(=O)c2-c2nc3cc4c(cc3[nH]2)C(=O)N(CCCN2CCCC2)C4)s1 (centres unmarked) | < 6.00 |  | 6.60 to 7.00 |
| CC(Cc1ccsc1)Nc1cc[nH]c(=O)c1-c1nc2cc3c(cc2[nH]1)C(=O)N(CCCN1CCCC1)C3 (centres unmarked) | 6.00 to 6.60 |  | 6.00 to 6.60 |
| C[C@@H](Cc1sccc1C(F)(F)F)Nc1cc[nH]c(=O)c1-c1nc2cc3c(cc2[nH]1)CN(CCN1CCCC1)C3=O | 7.00 to 8.00 |  | 6.00 to 6.60 |
| C[C@H](Cc1cccs1)Nc1cc[nH]c(=O)c1-c1nc2c(Cl)c3c(cc2[nH]1)C(=O)N(C1CCN(C)CC1)C3 | < 6.00 |  | 6.00 to 6.60 |

Reference: patent US9249147B2, “Tyrosine kinase inhibitors” (CHEMBRIDGE CORPORATION, priority 2008, dated 2016)
